Data from patent US10407388B2, “Thiourea derivatives as activators of RORα and pharmaceutical composition containing same” (SEOUL NATIONAL UNIVERSITY R & DB FOUNDATION, priority 2011, dated 2019).

Assays:
ACC [1] = assay: Phosphorylation of ACC in HepG2 cells, western blotting; format: cell-based, human; details: 100 μM, 24 hours; FIGS. 7a and 7b
Experimental: HepG2 cells (1×10^6 cells/well) were seeded on a 60-dish, and cultured overnight in a DMEM containing 10% FBS. The HepG2 cells were maintained at 37° C. in a humidification thermostat containing 5% CO2 and 95% air. After culturing, the HepG2 cells were treated with 100 μM JC1-38 and JC1-40 (or 100 μM JC1-38 and JC1-42), 2 mM metfornin, and 2 mM AICIR for 24 hours. After treatment, the expression of RORα and phosphorylated ACC (pACC) proteins was analyzed by western blotting, and the expression of α-tubulin was monitored as a control. The results thereof are illustrated in FIGS. 7a and 7b.

HepG2 cells = assay: Lipid accumulation in hepatocytes, Nile red staining and flow cytometry; format: cell-based, human; details: 50 μM with oleic acid/palmitic acid mixture, 3 days; FIGS. 10a and 10b
Experimental: HepG2 cells (3×10^5 cells/well) were seeded on a 60-dish and cultured overnight in a DMEM containing 10% FBS. The HepG2 cells were maintained at 37° C. in a humidification thermostat containing 5% CO2 and 95% air. After culturing, the HepG2 cells were treated with 50 μM JC1-40 (or JC1-42) and, as a lipid generation inducing material, a fatty acid mixture prepared by mixing 0.5 mM oleic acid and 0.5 mM palmitic acid in a ratio of 2:1 (5 mM oleic acid and 5 mM palmitic acid were mixed in a medium containing 1% fatty acid-free bovine serum albumin (BSA) and diluted to the final concentration prior to use) for 3 days. After 3 days, cell lysates were collected, and stained with 1 μg/ml of Nile red at room temperature for 15 minutes, and the concentration of triglycerides was measured by a flow cytometry method using a FACSCalibur™ machine (BD Biosciences). Fluorescence emission was measured at a wavelength between 500 nm and 580 nm. The results thereof are illustrated in FIGS. 10a and 10b.

AMPK = assay: Phosphorylation of AMPK in liver of mice with high-fat diet-induced fatty liver, western blotting; format: in vivo; details: oral, 10 mg/kg/day or 30 mg/kg/day for 2 days; liver tissue; FIG. 11b
Experimental: (§1) 3 days after the diet was fed, the mice were fed the high-fat diet containing safflower oil while being orally administered JC1-40 and JC1-42, which had been diluted with 0.5% carboxymethyl cellulose, at a dose of 10 mg/kg/day or 30 mg/kg/day for 2 days. 5 days after the diet was fed, the mice were sacrificed to extract liver tissues therefrom, and the expression of proteins was analyzed by western blotting analysis. That is, after treatment, each liver tissue was homogenized in a lysis buffer containing 50 mM NaCl, 50 mM Tris pH 7.4, 5 mM EDTA, 1% NP-40, and a protease inhibitor, and then centrifuged to obtain a total cell lysate. 20 μg to 30 μg of proteins collected from the total cell lysate was subjected to 7% to 9% SDS-PAGE, and was transferred to a polyvinylidene difluoride membrane (Millipore, Bedford, Mass., USA). […] Immunoreactive proteins were detected with Amersham ECL western blotting detection reagents using an HRP-conjugated secondary antibody (Zymed Lab). Protein concentrations were quantified by BCA (Pierce) analysis, and the expression of α-tubulin was monitored as a control. […]

ACC [2] = assay: Phosphorylation of ACC in liver of mice with high-fat diet-induced fatty liver, western blotting; format: in vivo; details: oral, 10 mg/kg/day or 30 mg/kg/day for 2 days; liver tissue; FIG. 11b
Experimental: as §1

SREBP-1 = assay: Expression of SREBP-1 protein in liver of mice with high-fat diet-induced fatty liver, western blotting; format: in vivo; details: oral, 10 mg/kg/day or 30 mg/kg/day for 2 days; liver tissue; FIG. 11b
Experimental: as §1

[3] = test system: mice with high-fat diet-induced fatty liver; assay: Intrahepatic triglyceride, intrahepatic fat accumulation and body weight in mice with high-fat diet-induced fatty liver; format: in vivo; details: oral, 10 mg/kg/day or 30 mg/kg/day for 2 days; for amount of intrahepatic triglyceride, which had been increased by the high-fat diet: FIG. 12a; for intrahepatic fat accumulation (Oil Red O staining): FIG. 12b; for body weights of the mice, which had been increased by the high-fat diet: FIG. 12c
Experimental: 3 days after the diet was fed, the mice were fed the high-fat diet containing safflower oil while being orally administered JC1-40 and JC142, which had been diluted with 0.5% carboxymethyl cellulose, at a dose of 10 mg/kg/day or 30 mg/kg/day for 2 days. 5 days after the diet was fed, the mice were sacrificed to extract liver tissues therefrom, and the amounts of intrahepatic triglycerides were measured using an EnzyChrom™ triglyceride assay kit (BioAssay Systems).
In addition, Oil Red O staining, which enables the identification of intrahepatic fat accumulation, was performed on the extracted liver tissues of the mice.

[4] = test system: high-fat diet-induced fatty liver mice model; assay: Blood biochemical analysis in high-fat diet-induced fatty liver mice model; format: in vivo; details: FIG. 13; for amount of blood triglycerides, which had been increased by the high-fat diet / amount of blood glucose / amount of total blood cholesterol: oral, 10 mg/kg/day or 30 mg/kg/day for 2 days; for amount of blood glucose / amount of total blood cholesterol: versus high-fat diet group
Experimental: 3 days after the diet was fed, the mice were fed the high-fat diet containing safflower oil while being orally administered JC1-40 and JC142, which had been diluted with 0.5% carboxymethyl cellulose, at a dose of 10 mg/kg/day or 30 mg/kg/day for 2 days. 5 days after the diet was fed, the mice were sacrificed to collect blood, and serum samples were collected therefrom.

A7r5 = assay: Proliferation of vascular smooth muscle cells, MTT; format: cell-based, rat; details: 100 μM for 2 days, 4 days, or 6 days, FIG. 14
Experimental: A7r5, which is a rat smooth muscle cell line, was purchased from ATCC. A7r5 was cultured in 5% CO2 using a DMEM supplemented with 10% FBS, penicillin (100 U/ml), and streptomycin (100 μg/ml) prior to use in an experiment. A7r5 cells (2×10^3 cells/well) were seeded on a 96-well culture plate and cultured overnight. After culturing, the A7r5 cells were treated with each of the JC1-40 and JC1-42 compounds at a concentration of 100 μM for 2 days, 4 days, or 6 days. Subsequently, the A7r5 cells were treated with MTT (3-4,5-dimethylthiazol-2-yl)-2,5-diphenyl-tetrazolium bromide) (2 mg/ml, 50 μl) for 4 hours, and then the medium was removed and 200 μl of DMSO was added to the plate. The contents in the plate were mixed for 5 minutes, and then absorbance was measured at 595 nm. Data was attained as the mean and SD for the three independent experimental results, and the results thereof are illustrated in FIG. 14.

[5] = 30 mg/kg/day, compared to the high-fat diet group

lipid accumulation in hepatocytes (HepG2 cells)	Compound	phosphorylation of ACC (ACC [1])	phosphorylation of AMPK (AMPK)	phosphorylation of ACC (ACC [2])	expression of SREBP-1 protein, which had been increased by the high-fat diet (SREBP-1)	amount of intrahepatic triglyceride, which had been increased by the high-fat diet [3]	intrahepatic fat accumulation (Oil Red O staining) [3]	body weights of the mice, which had been increased by the high-fat diet [3]	amount of high-density lipoproteins [4, 5]	amount of blood triglycerides, which had been increased by the high-fat diet [4]	amount of blood glucose [4]	amount of total blood cholesterol [4]	proliferation of vascular smooth muscle cells (A7r5)	GOP [4, 5]	GPT [4, 5]
significantly decreased	CNC(=S)NCc1ccc(Oc2ccccc2)cc1 [Compound 42, 1-(4-phenoxy-benzyl)-3-methyl-thiourea]	increased	increased	increased	decreased	decreased	decreased	decreased	increased	decreased	not different from those in the high-fat diet group	not different from those in the high-fat diet group	decreased	–	–
significantly decreased	CNC(=S)NCc1ccc(OCc2ccccc2)cc1 [Compound 40, 1-(4-benzyloxy-benzyl)-3-methyl-thiourea]	increased	increased	increased	decreased	decreased	decreased	decreased	increased	decreased	not different from those in the high-fat diet group	not different from those in the high-fat diet group	decreased	decreased	decreased
